Earlier results on one substance are cited in patent US10342235B2, “Formulations comprising phosphite” (Ceradis B.V., priority 2015, dated 2019).

The data set relates to rodents. The following applies: oral administration, dermal administration, inhalatory exposure.

Take potassium phosphite: the Toxicity in rodents entry is given as “low toxicity”.
